# Test results from US4652566A, “Benzofuran derivatives, processes for preparing the same and antihypertensive agents containing the same” (Kaken Pharmaceutical Co., Ltd., priority 1984, dated 1987).
# Where a name gives a salt, the structure may show the parent alone.
# Legend:
# [1] = target: T1, α-adrenergic blockade (vas deferens specimen, contraction by noradrenalin) (Rattus norvegicus, UniProt P43140); experiment: α-Adrenergic blockade effect (contraction response by noradrenalin of vas deferens specimen, Magnus method); design: species or system Wister male rat; conditions: for Kb: rat vas deferens, antagonism of noradrenalin contraction, pA2 = negative logarithm of antagonist dose shifting agonist curve two times, read-out: α-Adrenergic blockade effect, pA2 value (converted)
# T1 construct: from tissue; host or cells: vas deferens of six-week-old male Wistar rat
# T1 sequence (P43140 1-466): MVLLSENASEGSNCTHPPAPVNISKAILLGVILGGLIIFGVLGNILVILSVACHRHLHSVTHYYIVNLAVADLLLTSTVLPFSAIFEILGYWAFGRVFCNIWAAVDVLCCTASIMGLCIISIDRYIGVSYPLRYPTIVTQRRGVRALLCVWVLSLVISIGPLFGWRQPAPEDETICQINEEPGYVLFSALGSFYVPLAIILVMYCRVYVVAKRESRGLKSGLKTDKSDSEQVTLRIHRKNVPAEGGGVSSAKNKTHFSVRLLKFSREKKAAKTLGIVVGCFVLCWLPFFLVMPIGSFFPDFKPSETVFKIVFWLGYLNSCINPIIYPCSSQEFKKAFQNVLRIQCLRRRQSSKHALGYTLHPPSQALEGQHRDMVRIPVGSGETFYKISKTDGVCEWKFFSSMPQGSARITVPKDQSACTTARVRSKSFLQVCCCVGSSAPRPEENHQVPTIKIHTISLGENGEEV
# [2] = target: T2, calcium antagonism (thoracic aorta spiral specimen, contraction by calcium) (Cavia porcellus, UniProt O35505); experiment: Calcium antagonistic effect (contraction response by calcium of spiral thoracic aorta specimen, Magnus method); design: species or system Hartly male giunea pig; conditions: guinea pig thoracic aorta; for Kb: antagonism of calcium contraction, read-out: Calcium antagonistic effect, pA2 value (converted)
# T2 construct: from tissue; host or cells: thoracic aorta spiral strip of male Hartley guinea pig
# T2 sequence (O35505 whole entry): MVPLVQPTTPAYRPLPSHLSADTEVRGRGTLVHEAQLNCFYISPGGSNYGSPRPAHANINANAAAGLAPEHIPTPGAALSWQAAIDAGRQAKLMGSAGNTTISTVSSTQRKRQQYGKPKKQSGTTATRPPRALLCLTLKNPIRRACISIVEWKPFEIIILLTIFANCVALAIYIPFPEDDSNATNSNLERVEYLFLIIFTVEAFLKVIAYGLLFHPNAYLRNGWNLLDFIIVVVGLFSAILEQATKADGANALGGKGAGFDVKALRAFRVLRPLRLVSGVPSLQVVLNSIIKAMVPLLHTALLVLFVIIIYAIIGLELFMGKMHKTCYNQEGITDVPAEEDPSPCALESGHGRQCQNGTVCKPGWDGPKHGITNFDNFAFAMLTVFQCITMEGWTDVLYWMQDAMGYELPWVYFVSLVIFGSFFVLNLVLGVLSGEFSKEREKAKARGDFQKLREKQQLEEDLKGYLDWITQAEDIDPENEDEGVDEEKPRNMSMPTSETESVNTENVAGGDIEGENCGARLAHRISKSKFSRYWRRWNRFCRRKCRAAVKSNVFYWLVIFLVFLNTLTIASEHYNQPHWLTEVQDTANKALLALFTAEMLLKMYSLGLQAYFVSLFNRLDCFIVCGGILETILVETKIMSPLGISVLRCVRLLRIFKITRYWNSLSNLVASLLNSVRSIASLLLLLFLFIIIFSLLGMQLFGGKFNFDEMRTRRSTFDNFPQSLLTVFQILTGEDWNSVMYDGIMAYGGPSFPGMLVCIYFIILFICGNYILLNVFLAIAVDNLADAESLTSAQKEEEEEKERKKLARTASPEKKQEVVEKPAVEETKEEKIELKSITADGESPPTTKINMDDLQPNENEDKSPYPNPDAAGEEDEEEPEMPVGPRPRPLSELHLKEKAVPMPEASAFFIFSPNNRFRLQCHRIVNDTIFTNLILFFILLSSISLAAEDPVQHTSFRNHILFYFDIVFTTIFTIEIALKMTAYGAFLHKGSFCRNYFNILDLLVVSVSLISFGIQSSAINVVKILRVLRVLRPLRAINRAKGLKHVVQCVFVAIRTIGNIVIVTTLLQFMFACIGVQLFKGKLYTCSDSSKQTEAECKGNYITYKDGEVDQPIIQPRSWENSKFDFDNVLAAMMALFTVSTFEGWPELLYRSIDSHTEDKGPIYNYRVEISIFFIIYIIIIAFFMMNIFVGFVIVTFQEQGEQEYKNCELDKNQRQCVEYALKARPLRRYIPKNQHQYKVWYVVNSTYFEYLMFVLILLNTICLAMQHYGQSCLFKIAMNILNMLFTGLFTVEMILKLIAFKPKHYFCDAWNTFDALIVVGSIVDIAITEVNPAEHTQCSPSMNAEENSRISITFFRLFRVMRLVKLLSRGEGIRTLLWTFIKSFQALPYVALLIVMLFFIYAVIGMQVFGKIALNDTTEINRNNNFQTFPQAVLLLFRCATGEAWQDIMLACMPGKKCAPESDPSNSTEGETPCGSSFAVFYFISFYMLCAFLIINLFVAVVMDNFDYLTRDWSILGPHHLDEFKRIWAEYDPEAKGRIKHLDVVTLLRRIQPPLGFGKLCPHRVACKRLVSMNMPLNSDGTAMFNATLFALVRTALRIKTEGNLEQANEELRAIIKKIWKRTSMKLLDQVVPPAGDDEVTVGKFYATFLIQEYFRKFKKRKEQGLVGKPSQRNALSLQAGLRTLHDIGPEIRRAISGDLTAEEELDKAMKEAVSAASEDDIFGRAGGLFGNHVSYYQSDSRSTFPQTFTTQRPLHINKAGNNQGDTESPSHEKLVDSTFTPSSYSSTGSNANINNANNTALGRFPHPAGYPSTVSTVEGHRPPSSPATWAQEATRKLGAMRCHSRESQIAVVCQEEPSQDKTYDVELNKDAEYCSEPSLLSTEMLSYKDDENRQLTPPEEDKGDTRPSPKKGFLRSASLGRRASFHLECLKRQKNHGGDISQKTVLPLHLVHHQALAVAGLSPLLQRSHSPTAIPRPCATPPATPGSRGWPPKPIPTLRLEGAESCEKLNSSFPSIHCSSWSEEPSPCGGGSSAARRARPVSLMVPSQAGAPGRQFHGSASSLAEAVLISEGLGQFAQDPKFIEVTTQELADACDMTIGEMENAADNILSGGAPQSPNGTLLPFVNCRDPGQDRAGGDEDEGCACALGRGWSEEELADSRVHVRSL
# Description: [Calcium antagonistic effect]
# Using a spiral blood vessel specimen taken from a thoracic aorta of Hartly male giunea pig weighed 400 to 600 g, a contraction response by calcium was measured as a dose-response curve according to Magnus method and the antagonistic activity for each test compound was indicated as above-mentioned pA2 value.
# [3] = Increasing effect on a coronary blood flow (anesthetized dog); assay type: in vivo; conditions: administered once into perfusion channel
# Description: [Increasing effect on a coronary blood flow]
# Adult dog weighed 9 to 13 kg which was anesthetized intravenously with 30 mg/kg of pentobarbiturate was used for this experiment. The animal was cut open at a chest under a condition of an artificial respiration. After an intravenous injection of 1000 U/kg of heparin, a glass cannula was inserted into coronary ramus circumflexus by way of a left subclavina artery and a perfusion was carried out with blood introduced from a right carotid artery. A blood flow was measured by means of a electromagnetic flowmeter set up at a perfusion channel.
# Each of test compounds was dissolved in a physiologic salt solution and the solution was administered once into a perfusion channel. An increase of a coronary blood flow was indicated as a percentage of an increasing rate.
# For the purpose of a comparison, the same experiment as mentioned above was carried out on Papavelin which was commonly used as coronary vasodilator.
# [4] = Accute toxicity test (LD50 value); conditions: mouse, in vivo; mice; single oral administration; deaths by seventh day; Litchfield-Wilcoxon
# Description: [Accute toxicity test (LD50 value)]
# The experiment was carried out using six weeks old ddy male mice.
# Each of test compounds was suspended in an aqueous solution containing 5% by weight of acasia and the suspension was administered compulsorily once orally with a gastric probe. Within six hours after the start of the administration, the behavior of tested mice were observed consecutively. Thereafter, the observation was made at an interval of twenty four hours during 7 days and an accumulative number of deaths seventh day since the start of the administration was measured.
# LD50 value was calculated according to the Litchfield-Wilcoxon method.
# [5] = Antihypertensive effect and effect on heart rate in spontaneously hypertensive rat (SHR); assay type: in vivo; conditions: po, single dose
# Description: [Antihypertensive effect and effect on a heart rate on rat suffering from a spontaneously hypertensive rat (SHR)]
# A blood pressure was measured under no anesthetic condition by means of an apparatus for recording a blood pressure of a tail artery and a heart rate (Riken Kaihatsu Co., Ltd.) (PS-802) and at the same time a heart rate was also measured.
# Each of test compounds was dissolved or suspended in an aqueous solution containing 5% by weight of acasia and the obtained solution or suspension was administered once orally to SHR which had been kept under a fast condition for one night. A blood pressure and a heart rate were measured before administration and after one hour, three hours, five hours and seven hours of it and the maximum value of changes were calculated by comparing the value measured before administration with the value measured after administration.
# For the purpose of a comparison, the same experiment as mentioned above was carried out on both Labetalol and Diltiazem as mentioned above.
# With respect to a dosage, 100 mg/kg and 10 mg/kg as to compounds obtained by Examples 2, 5, 6, 9 and 18 to 23 were respectively administered, 100 mg/kg as to compounds obtained by Examples 1, 3, 4, 7 and 10 to 17 was respectively administered.
# [6] = 100 mg/kg, maximum over 1, 3, 5, 7 hours (Table 3)
# [7] = 10 mg/kg, maximum over 1, 3, 5, 7 hours (Table 2)
# [8] = 100 mg/kg, maximum over 1, 3, 5, 7 hours (Table 2)
Structure (SMILES),Kb [1],Kb [2],Increasing rated of coronary blood flow when administered with a 1 mg [3],LD50 at 168 h [4],"α-Adrenergic blockade effect, relative ratio as compared with Phentolamine [1]","Calcium antagonistic effect, relative ratio as compared with Diltiazem ([2]; Diltiazem = 1.0)","Maximum value of change, heart rate [5, 6]","Maximum value of change, systolic pressure [5, 6]","Maximum value of change, heart rate [5, 7]","Maximum value of change, systolic pressure [5, 7]","Maximum value of change, heart rate [5, 8]","Maximum value of change, systolic pressure [5, 8]"
"COc1ccccc1N1CCN(CC(O)COc2cccc3cc(C(C)=O)oc23)CC1 (stereo not drawn) [Ex. 2 (HCl salt), 2-acetyl-7-{2-hydroxy-3-[4-(2-methoxyphenyl)piperazinyl]-propoxy}benzofuran]",0.0389 µM,0.195 µM,88.4 ± 14.2%,,,,,,,,,
COc1ccccc1N1CCN(CC(O)COc2ccc3oc(C(C)=O)cc3c2)CC1 (stereo not drawn) [Ex. 5 (HCl salt)],0.049 µM,0.0468 µM,107.5 ± 6.5%,> 1500 mg/kg,3.2,1.9,,,,,,
"CC(=O)c1cc2cccc(OCC(O)CN3CCN(c4cccc(Cl)c4)CC3)c2o1 (stereo not drawn) [Ex. 8 (HCl salt), 2-acetyl-7-{3-[4-(3-chlorophenyl)piperazinyl]-2-hydroxypropoxy}benzofuran]",0.468 µM,0.0851 µM,96.3 ± 13.1%,> 1000 mg/kg,,,-98.4 ± 17.2 beats/min,-44.2 ± 8.4 mmHg,,,,
"COc1ccccc1N1CCN(CC(O)COc2cccc3cc(C(N)=O)oc23)CC1 (stereo not drawn) [Ex. 9, 2-carbamoyl-7-{2-hydroxy-3-[4-(2-methoxyphenyl)-piperazinyl]propoxy}benzofuran]",0.0275 µM,0.631 µM,105.6 ± 11.8%,> 1500 mg/kg,,,,,-154.2 ± 17.3 beats/min,-61.2 ± 4.3 mmHg,-69.2 ± 12.1 beats/min,-75.6 ± 2.4 mmHg
"COc1ccc(N2CCN(CC(O)COc3cccc4cc(C(N)=O)oc34)CC2)cc1 (stereo not drawn) [Ex. 10, 2-carbamoyl-7-{2-hydroxy-3-[4-(4-methoxyphenyl)piperazinyl]porpoxy,}benzofuran]",0.0871 µM,1.26 µM,,1100 mg/kg,1.8,,-80.0 ± 37.6 beats/min,-97.9 ± 4.0 mmHg,,,,
"COc1ccccc1N1CCN(CC(O)COc2ccc3cc(C(N)=O)oc3c2)CC1 (stereo not drawn) [Ex. 11, 2-carbamoyl-6-{2-hydroxy-3-[4-(2-methoxyphenyl)piperazinyl]propoxy}benzofuran]",0.0575 µM,0.158 µM,,> 1500 mg/kg,,,-126.5 ± 27.3 beats/min,-78.8 ± 7.6 mmHg,,,,
COc1ccccc1N1CCN(CC(O)COc2ccc3oc(C(N)=O)cc3c2)CC1 (stereo not drawn) [Ex. 12],0.1 µM,1.17 µM,,> 1500 mg/kg,1.6,,-110.0 ± 20.0 beats/min,-100.2 ± 3.9 mmHg,,,,
"Cc1ccccc1N1CCN(CC(O)COc2cccc3cc(C(N)=O)oc23)CC1 (stereo not drawn) [Ex. 13, 2-carbamoyl-7-{2-hydroxy-3-[4-(2-methylphenyl)piperazinyl]propoxy}benzofuran]",0.24 µM,1.35 µM,,> 1500 mg/kg,,,-80.0 ± 16.6 beats/min,-97.0 ± 9.8 mmHg,,,,
"Cc1ccccc1N1CCN(CC(O)COc2ccc3cc(C(N)=O)oc3c2)CC1 (stereo not drawn) [Ex. 14, 2-carbamoyl-6-{2-hydroxy-3-[4-(2-methylphenyl)piperazinyl]-propoxy}benzofuran]",0.11 µM,0.182 µM,,> 1000 mg/kg,,,-132.9 ± 28.8 beats/min,-67.3 ± 6.8 mmHg,,,,
NC(=O)c1cc2cccc(OCC(O)CN3CCN(c4cccc(Cl)c4)CC3)c2o1 (stereo not drawn) [Ex. 15],3.02 µM,0.398 µM,,> 1000 mg/kg,,,-100.0 ± 19.5 beats/min,-79.9 ± 11.9 mmHg,,,,
"COc1ccccc1N1CCN(CC(O)COc2cccc3cc(C#N)oc23)CC1 (stereo not drawn) [Ex. 16 (HCl salt), 2-cyano-7-{2-hydroxy-3-[4-(2-methoxyphenyl)piperazinyl]-propoxy} benzofuran]",0.0427 µM,0.513 µM,,900 mg/kg,,,-189.6 ± 26.8 beats/min,-13.3 ± 4.6 mmHg,,,,
"COc1ccccc1N1CCN(CC(O)COc2ccc3cc(C#N)oc3c2)CC1 (stereo not drawn) [Ex. 17 (HCl salt), 2-cyano-6-{2-hydroxy-3-[4-(2-methoxyphenyl)piperazinyl]propoxy}benzofuran]",0.204 µM,0.115 µM,,900 mg/kg,,,-154.5 ± 21.1 beats/min,-40.5 ± 6.6 mmHg,,,,
"COc1ccccc1N1CCN(CC(O)COc2cccc3cc(C(C)O)oc23)CC1 (stereo not drawn) [Ex. 22, 2-(1-hydroxyethyl)-7-{2-hydroxy-3-[4-(2-methoxyphenyl)piperazinyl]propoxy}benzofuran]",0.0501 µM,1.05 µM,87.7 ± 9.4%,> 1500 mg/kg,,,,,-149.2 ± 15.3 beats/min,-42.8 ± 6.7 mmHg,-160.2 ± 19.8 beats/min,-69.5 ± 7.9 mmHg
"Cc1ccccc1N1CCN(CC(O)COc2cccc3cc(C(C)O)oc23)CC1 (stereo not drawn) [Ex. 23, 2-(1-hydroxyethyl)-7-{2-hydroxy-3-[4-(2-methylphenyl)piperazinyl]propoxy}benzofuran]",0.0776 µM,0.589 µM,,> 1000 mg/kg,,,,,-93.4 ± 17.6 beats/min,-54.9 ± 9.4 mmHg,-131.4 ± 22.3 beats/min,-73.1 ± 9.2 mmHg
"COc1ccc(Cc2nccc3cc(OC)c(OC)cc23)cc1OC [papavelin, Papavelin, reference compound]",,,136.3 ± 27.0%,,,,,,,,,
